This assay concerns the target Delta-type opioid receptor (Homo sapiens) (UniProt P41143). Nature of the assay: activators in OPRD1-only cells, late-stage follow-up, counter-screen for OPRM1-OPRD1 heterodimer activator project, cell-based, luminescence, dose response, set 2 (AID 651764). As to conditions: OPRD1 cell-based luminescence activation counterscreen.

SMILES strings stand for the structures. Activity calls are given as the source filed them. The rule behind the calls is not given here. Bounds are passed on as bounds.

Chain of Delta-type opioid receptor (Homo sapiens) (P41143 whole entry, looked up): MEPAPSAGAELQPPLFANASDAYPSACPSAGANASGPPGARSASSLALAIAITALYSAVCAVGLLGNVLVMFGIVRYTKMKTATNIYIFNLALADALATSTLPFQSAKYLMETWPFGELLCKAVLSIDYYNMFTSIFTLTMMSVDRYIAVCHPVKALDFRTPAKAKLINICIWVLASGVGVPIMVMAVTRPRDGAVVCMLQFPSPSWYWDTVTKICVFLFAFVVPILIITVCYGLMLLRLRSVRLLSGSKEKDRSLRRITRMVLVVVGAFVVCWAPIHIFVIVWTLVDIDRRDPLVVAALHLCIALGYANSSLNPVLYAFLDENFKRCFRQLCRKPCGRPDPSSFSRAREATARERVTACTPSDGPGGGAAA

`C=Cc1ccc(C(=O)N2CCC(CCCc3ccccc3)(C(=O)OCC)CC2)cc1`: the EC50 was > 50 µM (inactive). Under `O=C(O)C1CCCCC1C(=O)Nc1ccc(CN2CCCCC2)cc1` (stereo not drawn) stands > 50 µM (inactive); under `CCOC(=O)C1(CCOC)CCN(Cc2ccc(N(C)c3ccccc3)cc2)CC1`, > 50 µM (inactive). As for `CCOC(=O)C1(CCc2ccccc2)CCN(Cc2ccc(O)cc2)CC1`, the EC50 was > 50 µM (inactive). For the molecule `CCOC(=O)C1(CCc2ccccc2)CCN(Cc2ccc(C(=O)OC)cc2)CC1`, the EC50 was > 50 µM (inactive). Take `CCOC(=O)C1(CCOC)CCN(Cc2ccc(NC(C)=O)cc2)CC1`: the EC50 is > 50 µM (inactive).

Turning to `CCOC(=O)C1CCCCN1Cc1ccc(NC(C)=O)cc1` (stereo not drawn), the EC50 is > 50 µM (inactive). In the case of `CCOC(=O)C1(Cc2ccccc2)CCCN(Cc2ccc(NC(C)=O)cc2)C1` (stereo not drawn) it was > 50 µM (inactive); in that of `CCOC(=O)C1(CCc2ccccc2)CCCN(Cc2ccc(N3CCNC3=O)cc2)C1` (stereo not drawn), > 50 µM (inactive); in that of `CCOC(=O)C1CCN(C(=O)c2ccc(N(C)C)cc2)CC1`, > 50 µM (inactive). As for `CCOC(=O)C1(CCc2ccccc2)CCN(Cc2c(O)cccc2OC)CC1`, the EC50 is > 50 µM (inactive). In the case of `CCOC(=O)C1(Cc2ccccc2C)CCCN(Cc2ccc(NC(C)=O)cc2)C1` (stereo not drawn) it was > 50 µM (inactive); in that of `CCOC(=O)C1(CCOC)CCCN(Cc2ccc(NC(C)=O)cc2)C1` (stereo not drawn), > 50 µM (inactive); in that of `CCOC(=O)C1(Cc2ccccc2Cl)CCN(Cc2ccc(NC(C)=O)cc2)CC1`, 0.321 µM. For the molecule `CCOC(=O)C1(CCOc2ccccc2)CCCN(Cc2ccc(NC(C)=O)cc2)C1` (stereo not drawn), the EC50 is > 50 µM (inactive).

As to `CCOC(=O)C1(CCc2ccccc2)CCN(C(=O)Nc2ccc(C)cc2C)CC1`, the EC50 is > 50 µM (inactive). In the case of `CCOC(=O)C1(CC2CC2)CCN(Cc2ccc(NC(C)=O)cc2)CC1` it was > 50 µM (inactive); in that of `CCOC(=O)C1(Cc2cccc(OC)c2)CCCN(Cc2ccc(NC(C)=O)cc2)C1` (stereo not drawn), > 50 µM (inactive); in that of `CCOC(=O)C1CCN(CCC(=O)Nc2ccc(C)cc2)CC1`, > 50 µM (inactive). Consider `CCOC(=O)C1(CCc2ccccc2)CCN(Cc2ccncc2)CC1`, for which the EC50 was > 50 µM (inactive). For the molecule `CCOC(=O)C1(CCc2ccccc2)CCN(Cc2ccc(C#CC(C)(C)O)cc2)CC1`, the EC50 is > 50 µM (inactive). Under `CCOC(=O)C1CCN(Cc2ccc(NC(C)=O)cc2)CC1` stands > 50 µM (inactive); under `C=Cc1ccc(C(=O)N2CCC(CCc3ccccc3)(C(=O)OCC)CC2)cc1`, > 50 µM (inactive); under `CCOC(=O)C1(Cc2ccc(OC)cc2)CCN(C(=O)c2ccc(N(C)C)cc2)CC1`, > 50 µM (inactive).

On to `CCOC(=O)C1CCN(Cc2ccc(N(C)C)cc2)CC1`, for which the EC50 is > 50 µM (inactive). On to `CCOC(=O)C1(CC2CC2)CCN(C(=O)c2ccc(N3CCCCC3)cc2)CC1`, for which the EC50 is > 50 µM (inactive). In the case of `CC(=O)Nc1ccc(CN2CCCC(CO)(CCc3ccccc3)C2)cc1` (stereo not drawn) it was > 50 µM (inactive); in that of `CCOC(=O)C1(CCc2ccccc2)CCN(Cc2ccc(OC)cc2)CC1`, > 50 µM (inactive).

What is called EC50 is the concentration needed to bring the measured effect to its halfway point.

For the origin of these results see PubChem BioAssay AID651764 (The Scripps Research Institute Molecular Screening Center, 2012).
